Source: ChEMBL document CHEMBL1122712, “[(E)-1-[123I]Iodo-1-penten-5-yl]triphenylphosphonium iodide: convenient preparation of a potentially useful myocardial perfusion agent” (J Med Chem, 1984)
Several values for one entry are separate records, joined by “and”; a condition that tells them apart may be missing. Equal values may be shown once.

Legend:
Assay type in all cases: ADME, organism-based
Rattus norvegicus [1] = assay: Distribution of radioactivity in the female rat heart tissues after intravenous administration after 60 min was determined; conditions: in vivo, 1 h
Rattus norvegicus [2] = assay: Distribution of radioactivity in the female liver rat tissues after intravenous administration after 30 min was determined; conditions: in vivo, 0.5 h
Rattus norvegicus [3] = assay: Distribution of radioactivity in the female rat blood tissues after intravenous administration after 1 day was determined; conditions: in vivo, 24 h
Rattus norvegicus [4] = assay: Distribution of radioactivity in the female rat lung tissues after intravenous administration after 5 min was determined; conditions: in vivo
Rattus norvegicus [5] = assay: Distribution of radioactivity in the female rat liver tissues after intravenous administration after 30 min was determined; conditions: in vivo, 0.5 h
Rattus norvegicus [6] = assay: Distribution of radioactivity in the female rat kidney tissues after intravenous administration after 3h was determined; conditions: in vivo
Rattus norvegicus [7] = assay: Distribution of radioactivity in the female rat lung tissues after intravenous administration after 60 min was determined; conditions: in vivo, 1 h
Rattus norvegicus [8] = assay: Distribution of radioactivity in the female rat kidney tissues after intravenous administration after 60 min was determined; conditions: in vivo, 1 h
Rattus norvegicus [9] = assay: Distribution of radioactivity in the female rat kidney tissues after intravenous administration after 3 days was determined; conditions: in vivo, 72 h
Rattus norvegicus [10] = assay: Distribution of radioactivity in the female rat lung tissues after intravenous administration after 3 days was determined; conditions: in vivo, 72 h
Rattus norvegicus [11] = assay: Distribution of radioactivity in the female rat blood tissues after intravenous administration after 3h was determined; conditions: in vivo
Rattus norvegicus [12] = assay: Distribution of radioactivity in the female rat heart tissues after intravenous administration after 5 min was determined; conditions: in vivo
Rattus norvegicus [13] = assay: Distribution of radioactivity in the female rat blood tissues after intravenous administration after 5 min was determined; conditions: in vivo
Rattus norvegicus [14] = assay: Distribution of radioactivity in the female rat liver tissues after intravenous administration after 3h was determined; conditions: in vivo
Rattus norvegicus [15] = assay: Distribution of radioactivity in the female rat blood tissues after intravenous administration after 60 min was determined; conditions: in vivo, 1 h
Rattus norvegicus [16] = assay: Distribution of radioactivity in the female rat kidney tissues after intravenous administration after 5 min was determined; conditions: in vivo
Rattus norvegicus [17] = assay: Distribution of radioactivity in the female rat kidney tissues after intravenous administration after 30 min was determined; conditions: in vivo, 0.5 h
Rattus norvegicus [18] = assay: Distribution of radioactivity in the female rat kidney tissues after intravenous administration after 1 day was determined; conditions: in vivo, 24 h
Rattus norvegicus [19] = assay: Distribution of radioactivity in the female rat heart tissues after intravenous administration after 3h was determined; conditions: in vivo
Rattus norvegicus [20] = assay: Distribution of radioactivity in the female rat lung tissues after intravenous administration after 30 min was determined; conditions: in vivo, 0.5 h
Rattus norvegicus [21] = assay: Distribution of radioactivity in the female rat blood tissues after intravenous administration after 3 days was determined; conditions: in vivo, 72 h
Rattus norvegicus [22] = assay: Distribution of radioactivity in the female rat blood tissues after intravenous administration after 30 min was determined; conditions: in vivo, 0.5 h
Rattus norvegicus [23] = assay: Distribution of radioactivity in the female rat lung tissues after intravenous administration after 3h was determined; conditions: in vivo
Rattus norvegicus [24] = assay: Distribution of radioactivity in the female rat liver tissues after intravenous administration after 3 days was determined; conditions: in vivo, 72 h
Rattus norvegicus [25] = assay: Distribution of radioactivity in the female rat heart tissues after intravenous administration after 1 day was determined; conditions: in vivo, 24 h
Rattus norvegicus [26] = assay: Distribution of radioactivity in the female rat lung tissues after intravenous administration after 1 day was determined; conditions: in vivo, 24 h
Rattus norvegicus [27] = assay: Distribution of radioactivity in the female rat heart tissues after intravenous administration after 3 days was determined; conditions: in vivo, 72 h
Rattus norvegicus [28] = assay: Distribution of radioactivity in the female rat heart tissues after intravenous administration after 30 min was determined; conditions: in vivo, 0.5 h
Rattus norvegicus [29] = assay: Distribution of radioactivity in the female rat liver tissues after intravenous administration after 60 min was determined; conditions: in vivo, 1 h
Rattus norvegicus [30] = assay: Distribution of radioactivity in the female heart rat tissues after intravenous administration after 3 days was determined; conditions: in vivo, 72 h
Rattus norvegicus [31] = assay: Distribution of radioactivity in the female rat liver tissues after intravenous administration after 1 day was determined; conditions: in vivo, 24 h

Activity (Rattus norvegicus [1]): 1.83% and 2.59%
Activity (Rattus norvegicus [2]): 5.59%
Activity (Rattus norvegicus [3]): 0.2% and 0.01%
Activity (Rattus norvegicus [4]): 0.89% and 0.75%
Activity (Rattus norvegicus [5]): 0.75%
Activity (Rattus norvegicus [6]): 4.38% and 2.75%
Activity (Rattus norvegicus [7]): 0.75% and 0.65%
Activity (Rattus norvegicus [8]): 7.95% and 5.06%
Activity (Rattus norvegicus [9]): 0.22% and 0.15%
Activity (Rattus norvegicus [10]): 0.102% and 0.91%
Activity (Rattus norvegicus [11]): 0.96% and 0.08%
Activity (Rattus norvegicus [12]): 1.49% and 2.38%
Activity (Rattus norvegicus [13]): 1.58% and 0.14%
Activity (Rattus norvegicus [14]): 0.74% and 0.09%
Activity (Rattus norvegicus [15]): 1.14% and 0.11%
Activity (Rattus norvegicus [16]): 13.72% and 7.08%
Activity (Rattus norvegicus [17]): 13.11% and 8.91%
Activity (Rattus norvegicus [18]): 0.79% and 0.46%
Activity (Rattus norvegicus [19]): 1.54% and 2.21%
Activity (Rattus norvegicus [20]): 0.79% and 0.64%
Activity (Rattus norvegicus [21]): 0.093% and 0.009%
Activity (Rattus norvegicus [22]): 1.59% and 0.15%
Activity (Rattus norvegicus [23]): 0.61% and 0.49%
Activity (Rattus norvegicus [24]): 0.13% and 0.019%
Activity (Rattus norvegicus [25]): 1.18% and 1.58%
Activity (Rattus norvegicus [26]): 0.19% and 0.17%
Activity (Rattus norvegicus [27]): 1%
Activity (Rattus norvegicus [28]): 1.6% and 2.31%
Activity (Rattus norvegicus [29]): 2.64% and 0.25%
Activity (Rattus norvegicus [30]): 0.64%
Activity (Rattus norvegicus [31]): 0.18% and 0.02%
SMILES: I/C=C/CCC[P+](c1ccccc1)(c1ccccc1)c1ccccc1.[I-]
